Assay [1] has as its target T1, phosphorylated EGFR (pEGFR) (Homo sapiens, UniProt P00533).
T1 construct: performed to measure phosphorylated EGFR levels using A431 cells (10% FBS); endogenous in cells; host or cells: A431
Description: Detection of phosphorylated EGFR (pEGFR) in EGF-stimulated A431 cells. In kind it is cell-based. Particulars: A431 cells (10% FBS), 4 hours incubation, EGF 30 ng/mL 10 minutes, AlphaLISA. Here is the method:
Enzyme-linked immunosorbent assays (ELISA) were performed to measure phosphorylated EGFR levels using A431 cells (10% FBS). A431 (1.0*10^4 cells/40 μl/well) cells were seeded in 384 well. Compounds were dissolved in DMSO, serially diluted in DMSO and then were added, mixed, and incubated for 4 hours at 37° C., 5% CO2. Following the 4-hours incubation, cells were stimulated for 10 minutes with EGF (Invitrogen, cat #PHG0311) at a final concentration of 30 ng/mL in the incubator. The media was aspirated and cells were lysed in 10 μL lysis buffer with protease and phosphatase inhibitors (PerkinElmer, cat #ALSU-PEGFR-A50K). The plates were placed on a shaker for 5 minutes and then incubated for 30 min at 4° C. for complete lysis. The lysate was transferred to an Optiplate (Perkin Elmer, cat #6007290).
Acceptor mix (PerkinElmer, cat #ALSU-PEGFR-A50K) was prepared just before use and 5 μL was dispensed to all the wells, followed by a 1.5-2 h incubation at room temperature in dark. The donor mix (PerkinElmer, cat #ALSU-PEGFR-A50K) was prepared under low light conditions prior to use and […] of donor mix was added to all the wells under subdued lighting or green filters. The plates were placed on a shaker for 5 min, sealed, and incubated overnight at room temperature in dark. Plates were read on the Envision (PerkinElmer) using standard AlphaLISA settings.
The percentage of inhibition on EGFR phosphorylation was calculated following equation: % Inhibition=100×(LumHC−LumSample)/(LumHC−LumLC). The low and high controls (LC/HC) are generated from lysate from wells with cells treated with DMSO or […] Staurosporine (BioAustralis, cat #BIA-S1086), […]. IC50 values were calculated by fitting the Curve using XLfit (v5.3.1.3), equation 201: Y=Bottom+(Top−Bottom)/(1+10^((Log IC50−X)*HillSlope)).
For orientation: Alpha assays give light when donor and acceptor beads are brought close together.

Assay [2] concerns the target Ba/F3 ERBB2 A775_G776insYVMA (Homo sapiens, UniProt P04626, DUP772-775, cells depend on it). The assay can be described thus: Cell viability assay, Ba/F3 ERBB2 A775_G776insYVMA. The format is cell-based, mouse. Conditions: Ba/F3 ERBB2 YVMA cells, cell viability, 72 hours, CellTiter Glo; Table B5; read-out: Ba/F3 ERBB2 YVMA, IC50. The method, then:
Cells were treated with compounds, and cell viability was measured as a metric of kinase inhibition.
The Ba/F3 cell line is IL-3-dependent mouse cell line derived from the C3H mouse strain. Ba/F3 cell lines were engineered to express human ERBB2 or EGFR kinases, rendering the cells IL-3 independent. The lines were generated via retroviral transduction utilizing a Moloney murine leukemia virus (MMLV) promoter, and constructs are stably integrated into the cell genome. The sequences of the ERBB2 and EGFR genes used were NCBI Reference Sequences NM_004448.3 and NM_005228.3, respectively.
Similarly, Ba/F3 cell lines engineered to express EGFR, ERBB2, or ERBB2 mutants were grown, harvested, counted and seeded at 3000 cells per well in 96-well plates. A subset of wells contained media only (low control, “LC”).
Table B1 provides the growth media and number of cells seeded per well for the each cell line.
Plates were placed in a 37° C., 5% CO2 incubator for 72 hours. Plates were then removed from the incubator and equilibrated for 15 minutes at room temperature. 40 μl of CellTiter Glo reagent (Promega) was added to measure the relative level of metabolically active cells by quantifying intracellular ATP concentrations. Plates were incubated for 30 minutes at room temperature, and luminescence was measured. […] Graphical curves were fitted using a nonlinear regression model with a sigmoidal dose response.
On the technique in general: In ATP-based viability assays light output follows the ATP content of the culture.

For assay [3], the target named is T2, phosphorylated ERBB2 (pERBB2) (Homo sapiens, UniProt P04626).
T2 construct: endogenous in cells; host or cells: BT-474
T2 sequence (P04626 23-1255): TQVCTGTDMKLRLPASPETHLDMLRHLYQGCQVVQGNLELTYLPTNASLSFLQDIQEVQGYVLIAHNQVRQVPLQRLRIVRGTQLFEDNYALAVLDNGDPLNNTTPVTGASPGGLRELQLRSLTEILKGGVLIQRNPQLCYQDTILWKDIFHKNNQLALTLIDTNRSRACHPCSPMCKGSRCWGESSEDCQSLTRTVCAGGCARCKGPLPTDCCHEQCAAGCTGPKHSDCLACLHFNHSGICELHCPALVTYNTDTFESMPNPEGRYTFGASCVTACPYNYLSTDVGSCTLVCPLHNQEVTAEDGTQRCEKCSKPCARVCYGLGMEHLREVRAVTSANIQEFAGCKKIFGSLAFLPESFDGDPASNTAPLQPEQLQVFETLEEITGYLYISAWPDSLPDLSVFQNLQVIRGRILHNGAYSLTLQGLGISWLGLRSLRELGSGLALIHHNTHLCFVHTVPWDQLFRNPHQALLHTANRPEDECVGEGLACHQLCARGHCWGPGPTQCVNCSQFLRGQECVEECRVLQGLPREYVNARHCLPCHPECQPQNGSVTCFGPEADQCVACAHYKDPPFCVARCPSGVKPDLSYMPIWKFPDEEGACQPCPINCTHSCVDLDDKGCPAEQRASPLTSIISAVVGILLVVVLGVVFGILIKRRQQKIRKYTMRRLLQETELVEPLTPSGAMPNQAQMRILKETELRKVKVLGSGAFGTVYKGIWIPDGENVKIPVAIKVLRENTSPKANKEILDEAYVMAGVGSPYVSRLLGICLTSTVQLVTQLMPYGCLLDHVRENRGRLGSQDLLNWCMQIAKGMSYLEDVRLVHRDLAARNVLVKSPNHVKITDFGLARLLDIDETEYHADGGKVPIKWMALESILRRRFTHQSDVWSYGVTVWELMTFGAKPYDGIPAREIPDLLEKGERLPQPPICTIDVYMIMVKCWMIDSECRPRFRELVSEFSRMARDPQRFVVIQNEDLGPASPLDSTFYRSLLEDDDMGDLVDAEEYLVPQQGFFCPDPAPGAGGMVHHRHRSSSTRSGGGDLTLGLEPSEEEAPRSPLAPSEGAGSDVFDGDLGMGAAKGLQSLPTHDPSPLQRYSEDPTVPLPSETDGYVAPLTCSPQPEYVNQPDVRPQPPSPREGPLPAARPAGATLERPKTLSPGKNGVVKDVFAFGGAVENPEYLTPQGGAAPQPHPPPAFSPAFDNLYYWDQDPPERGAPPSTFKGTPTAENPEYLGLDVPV
The assay can be described thus: Detection of phosphorylated ERBB2 (pERBB2) by ELISA in BT-474 cells. Particulars: four hours incubation. In kind it is cell-based. The method, then: BT-474 cells were seeded into a 96-well at 2.0*10^4 cells/100 μl/well.
Compounds were dissolved and serially diluted in DMSO. The compounds were then were added, mixed, and incubated for four hours at 37° C., 5% CO2. Compounds were added using four-fold dilutions at final concentrations ranging from 10 μM to 0.01 nM.
Following the four hour incubation with compounds, cell lysates were prepared.
Plates were centrifuged for 5 min at 3000 RPM, and supernatant was removed from each well. Cells were washed 3 times by resuspension in 150 μl PBS, followed by centrifugation and removal of the supernatant, as above. […] Cells were incubated with lysis buffer for 1 hour at 4° C., and then stored at −80° C.
Enzyme-linked immunosorbent assays (ELISA) were performed to measure phosphorylated ERBB2 levels. […] The next day, plates were washed with PBS+0.05% Tween20 (PBST). 150 μl of 5% BSA blocking solution was added for 1 hour at room temperature, with shaking. Plates were washed with PBST. Cell lysates were thawed and 100 μl of lysate was added to the ELISA plate. The plates were incubated for 2 hours at room temperature, with shaking. […] Plates were incubated for 1 hour at room temperature, with shaking. Plates were then washed with PBST, and 100 μl TMB substrate solution (R&D Systems, cat #DY999) was added. Plate were incubated in the dark for 20 minutes at room temperature. 50 μl of Stop solution (R&D Systems, cat #DY994) (50 μl) was added to each well and mixed.
Optical density at 450 nm was read on an EnSpire plate reader (Perkin Elmer). The remaining kinase activity by calculated using the following formula: % Relative activity=100×(A450sample−A450LC)/(A450HC−A450LC). The low and high control values (“LC” and “HC”) were generated from lysate from wells without cells or with cells treated with 0.1% DMSO, respectively.
(In general: ELISA stands for enzyme-linked immunosorbent assay.)

T1 sequence (P00533 25-1210): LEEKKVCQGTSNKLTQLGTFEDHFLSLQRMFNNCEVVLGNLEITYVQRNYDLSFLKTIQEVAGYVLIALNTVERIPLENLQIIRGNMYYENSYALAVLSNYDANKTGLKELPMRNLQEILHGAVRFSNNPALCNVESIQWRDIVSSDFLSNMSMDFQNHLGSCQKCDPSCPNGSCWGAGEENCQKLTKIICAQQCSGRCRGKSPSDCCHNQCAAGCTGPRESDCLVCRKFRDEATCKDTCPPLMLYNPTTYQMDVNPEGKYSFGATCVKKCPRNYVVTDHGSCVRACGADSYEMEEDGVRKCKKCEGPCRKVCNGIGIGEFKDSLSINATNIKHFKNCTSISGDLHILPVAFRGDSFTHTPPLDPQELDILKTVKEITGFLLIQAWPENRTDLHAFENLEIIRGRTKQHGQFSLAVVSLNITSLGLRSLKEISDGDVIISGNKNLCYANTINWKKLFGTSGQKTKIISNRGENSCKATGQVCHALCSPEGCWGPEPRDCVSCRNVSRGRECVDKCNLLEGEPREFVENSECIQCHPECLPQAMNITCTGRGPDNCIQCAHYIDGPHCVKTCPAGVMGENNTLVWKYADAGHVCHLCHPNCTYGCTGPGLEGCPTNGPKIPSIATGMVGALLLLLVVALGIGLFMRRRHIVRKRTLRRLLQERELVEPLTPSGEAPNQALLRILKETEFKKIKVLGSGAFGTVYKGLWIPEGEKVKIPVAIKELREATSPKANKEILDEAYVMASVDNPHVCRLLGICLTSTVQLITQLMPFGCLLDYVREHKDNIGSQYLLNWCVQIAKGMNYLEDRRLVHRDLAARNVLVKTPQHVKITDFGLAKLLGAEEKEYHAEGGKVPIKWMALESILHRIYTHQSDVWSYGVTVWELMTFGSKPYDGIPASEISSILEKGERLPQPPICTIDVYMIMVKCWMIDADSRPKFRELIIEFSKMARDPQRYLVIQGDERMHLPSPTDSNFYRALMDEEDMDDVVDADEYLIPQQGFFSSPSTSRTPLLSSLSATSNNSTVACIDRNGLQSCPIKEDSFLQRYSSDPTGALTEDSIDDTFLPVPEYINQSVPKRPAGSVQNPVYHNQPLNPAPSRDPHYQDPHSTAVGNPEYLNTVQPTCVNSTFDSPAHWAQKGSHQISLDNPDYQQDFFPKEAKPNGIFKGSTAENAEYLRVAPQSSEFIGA
Ba/F3 ERBB2 A775_G776insYVMA, sequence (P04626 with tags, fused parts or gaps DUP772-775): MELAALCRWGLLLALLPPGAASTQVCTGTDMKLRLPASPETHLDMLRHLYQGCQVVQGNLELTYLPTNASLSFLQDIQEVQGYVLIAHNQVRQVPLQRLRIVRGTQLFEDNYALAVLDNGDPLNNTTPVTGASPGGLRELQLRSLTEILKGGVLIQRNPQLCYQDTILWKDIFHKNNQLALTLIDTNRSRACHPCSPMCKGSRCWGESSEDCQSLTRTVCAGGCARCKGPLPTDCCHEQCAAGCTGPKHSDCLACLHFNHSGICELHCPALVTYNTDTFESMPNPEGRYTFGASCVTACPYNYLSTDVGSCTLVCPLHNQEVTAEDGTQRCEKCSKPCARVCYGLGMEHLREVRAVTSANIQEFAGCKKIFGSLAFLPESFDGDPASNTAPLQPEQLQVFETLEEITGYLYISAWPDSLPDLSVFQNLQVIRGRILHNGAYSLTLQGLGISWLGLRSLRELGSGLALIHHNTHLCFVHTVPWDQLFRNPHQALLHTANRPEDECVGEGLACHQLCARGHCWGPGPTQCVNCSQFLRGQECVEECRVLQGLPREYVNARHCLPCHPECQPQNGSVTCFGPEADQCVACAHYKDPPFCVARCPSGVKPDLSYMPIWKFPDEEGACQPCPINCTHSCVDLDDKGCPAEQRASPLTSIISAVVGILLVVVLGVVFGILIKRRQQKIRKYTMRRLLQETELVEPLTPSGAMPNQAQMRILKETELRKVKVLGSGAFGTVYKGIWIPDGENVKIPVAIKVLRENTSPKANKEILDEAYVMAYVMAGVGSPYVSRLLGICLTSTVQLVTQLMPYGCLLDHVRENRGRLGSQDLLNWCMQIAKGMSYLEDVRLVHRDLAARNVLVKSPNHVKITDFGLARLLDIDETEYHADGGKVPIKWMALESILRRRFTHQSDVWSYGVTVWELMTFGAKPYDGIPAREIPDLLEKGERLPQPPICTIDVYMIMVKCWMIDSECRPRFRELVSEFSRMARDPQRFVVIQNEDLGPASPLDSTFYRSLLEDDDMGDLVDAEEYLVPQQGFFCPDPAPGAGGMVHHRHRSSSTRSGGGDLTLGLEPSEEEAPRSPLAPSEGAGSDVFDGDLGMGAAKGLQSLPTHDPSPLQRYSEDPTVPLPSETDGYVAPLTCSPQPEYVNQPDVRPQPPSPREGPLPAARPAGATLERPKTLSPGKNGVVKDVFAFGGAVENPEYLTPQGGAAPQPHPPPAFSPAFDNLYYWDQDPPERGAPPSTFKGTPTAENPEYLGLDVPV

The IC50 is the point on the concentration scale where inhibition reaches its midpoint. Low readings indicate greater potency in that assay, high ones weaker potency in that assay. For `Cc1cc(Nc2ncnc3cnc(N4CC(C)/C(=C\CN(C)C)C4=O)cc23)ccc1Oc1ccc2c(c1)nnn2C` (single isomer, unassigned) [Example S86, Enantiomer #2, (3E)-3-[2-(dimethylamino)ethylidene]-4-methyl-1-[4-({3-methyl-4-[(1-methyl-1,2,3-benzotriazol-5-yl)oxy]phenyl}amino)pyrido[3,4-d]pyrimidin-6-yl]pyrrolidin-2-one], the IC50 in assay [1] was over 10000 nM; in assay [3], 138 nM. Also, the GI50 in assay [2] is 240 nM.
With `Cc1cc(Nc2ncnc3cnc(N4CC(C)C(=CCN(C)C)C4=O)cc23)ccc1Oc1ccc2c(c1)ncn2C` (single isomer, unassigned) [Example S97, Enantiomer #1, 3-[2-(dimethylamino)ethylidene]-4-methyl-1-[4-({3-methyl-4-[(1-methyl-1,3-benzodiazol-5-yl)oxy]phenyl}amino)pyrido[3,4-d]pyrimidin-6-yl]pyrrolidin-2-one], the IC50 in assay [1] is over 10000 nM; in assay [3], 41.3 nM. For the same compound, the GI50 in assay [2] was 45.6 nM.
The corresponding values for `Cc1cc(Nc2ncnc3cnc(N4CC(C)C(=CCN(C)C)C4=O)cc23)ccc1Oc1ccc2c(c1)ncn2C` (single isomer, unassigned) [Example S97, Enantiomer #2, 3-[2-(dimethylamino)ethylidene]-4-methyl-1-[4-({3-methyl-4-[(1-methyl-1,3-benzodiazol-5-yl)oxy]phenyl}amino)pyrido[3,4-d]pyrimidin-6-yl]pyrrolidin-2-one] are 490 nM, 21 nM and 4.12 nM.
The corresponding values for `Cc1cc(Nc2ncnc3ccc(N4CC(C)C(=CCN(C)C)C4=O)nc23)ccc1Oc1ccn2ncnc2c1` (single isomer, unassigned) [Example S98, Enantiomer #1, 3-[2-(dimethylamino)ethylidene]-4-methyl-1-{4-[(3-methyl-4-{[1,2,4]triazolo[1,5-a]pyridin-7-yloxy}phenyl)amino]pyrido[3,2-d]pyrimidin-6-yl}pyrrolidin-2-one] are 158 nM, 11.9 nM and 1.13 nM.
The like results for `Cc1cc(Nc2ncnc3ccc(N4CC(C)C(=CCN(C)C)C4=O)nc23)ccc1Oc1ccn2ncnc2c1` (single isomer, unassigned) [Example S98, Enantiomer #2, 3-[2-(dimethylamino)ethylidene]-4-methyl-1-{4-[(3-methyl-4-{[1,2,4]triazolo[1,5-a]pyridin-7-yloxy}phenyl)amino]pyrido[3,2-d]pyrimidin-6-yl}pyrrolidin-2-one] were, in that order, over 10000 nM, 26.4 nM and 71.2 nM.
As for `Cc1cc(Nc2ncnc3ccc(N4C(=O)C(=CCN(C)C)C5CC54)nc23)ccc1Oc1ccn2ncnc2c1` (single isomer, unassigned) [Example S108, Enantiomer #1, 4-[2-(dimethylamino)ethylidene]-2-{4-[(3-methyl-4-{[1,2,4]triazolo[1,5-a]pyridin-7-yloxy}phenyl)amino]pyrido[3,2-d]pyrimidin-6-yl}-2-azabicyclo[3.1.0]hexan-3-one], the IC50 in assay [1] was determined as 6680 nM; in assay [3], 19.1 nM. Moreover, the GI50 in assay [2] came out at 54 nM.
The like results for `Cc1cc(Nc2ncnc3ccc(N4C(=O)C(=CCN(C)C)C5CC54)nc23)ccc1Oc1ccn2ncnc2c1` (single isomer, unassigned) [Example S108, Enantiomer #2, 4-[2-(dimethylamino)ethylidene]-2-{4-[(3-methyl-4-{[1,2,4]triazolo[1,5-a]pyridin-7-yloxy}phenyl)amino]pyrido[3,2-d]pyrimidin-6-yl}-2-azabicyclo[3.1.0]hexan-3-one] were, in that order, 175 nM, 12.7 nM and 4.88 nM.
The like results for `C=C1C(=O)N(c2ccc3ncnc(Nc4ccc(Oc5ccn6ncnc6c5)c(C)c4)c3c2)CC1COCCN(C)C` (single isomer, unassigned) [Example S111, Enantiomer #1, 1-(4-(4-([1,2,4]triazolo[1,5-a]pyridin-7-yloxy)-3-methylphenylamino)quinazolin-6-yl)-4-((2-(dimethylamino)ethoxy)methyl)-3-methylenepyrrolidin-2-one] were, in that order, 274 nM, 16.6 nM and 18.4 nM.
The corresponding values for `C=C1C(=O)N(c2ccc3ncnc(Nc4ccc(Oc5ccn6ncnc6c5)c(C)c4)c3c2)CC1COCCN(C)C` (single isomer, unassigned) [Example S111, Enantiomer #2, 1-(4-(4-([1,2,4]triazolo[1,5-a]pyridin-7-yloxy)-3-methylphenylamino)quinazolin-6-yl)-4-((2-(dimethylamino)ethoxy)methyl)-3-methylenepyrrolidin-2-one] are 33.7 nM, 18.2 nM and 10.8 nM.
As to `Cc1cc(Nc2ncnc3cnc(N4CC(C)/C(=C\CN(C)C)C4=O)cc23)c(F)cc1Oc1ccc2c(c1)nnn2C` (single isomer, unassigned) [Example S115, Enantiomer #1, (3E)-3-[2-(dimethylamino)ethylidene]-1-[4-({2-fluoro-5-methyl-4-[(1-methyl-1,2,3-benzotriazol-5-yl)oxy]phenyl}amino)pyrido[3,4-d]pyrimidin-6-yl]-4-methylpyrrolidin-2-one], the IC50 came out at 1000 nM in assay [1] and 32 nM in assay [3]. Moreover, in assay [2], the GI50 turned out to be 11.3 nM.
The corresponding values for `Cc1cc(Nc2ncnc3cnc(N4CC(C)/C(=C\CN(C)C)C4=O)cc23)c(F)cc1Oc1ccc2c(c1)nnn2C` (single isomer, unassigned) [Example S115, Enantiomer #2, (3E)-3-[2-(dimethylamino)ethylidene]-1-[4-({2-fluoro-5-methyl-4-[(1-methyl-1,2,3-benzotriazol-5-yl)oxy]phenyl}amino)pyrido[3,4-d]pyrimidin-6-yl]-4-methylpyrrolidin-2-one] are over 10000 nM, 273 nM and 286 nM.

For the origin of these results see US20240116921A1, “LACTAM (HETERO)[…] DERIVATIVES AS INHIBITORS OF ERBB2” (EnLiven Therapeutics, Inc., priority 2020, published 2024).
